Laboratory results from patent US9598387B2 (Southern Research Institute, priority 2012, dated 2017).

Experiments:
Long Evans rats = assay: Food self-administration under PR schedule of reinforcement; type: in vivo, rat; conditions: 3.75 mg dose vs 0; t(7)=0.43, p=0.66
Protocol: These studies were performed using Long Evans rats using standard protocols. Training and testing took place in ventilated and sound-attenuated operant chambers measuring 30×21×18 cm. Each chamber contained two levers, one light above each of the levers, and a food trough. Each lever was positioned 2.5 cm from the rod floor and the food trough (measuring 5×5 cm) was centered between the two levers. A different set of animals (n=8) was trained to press a lever reinforced by food under a FR1 schedule of reinforcement. […] Percentage of baseline BPs for food self-administration was analyzed using a dependent measures t-test comparing the 0 and 3.75 mg doses of 113.

D3R [1] = molecular target: T1, D3R (Homo sapiens (Human), UniProt P35462); assay: D3 Mitogenesis Functional Assay (3H-thymidine uptake, CHOp-D3 cells); type: cell-based
Outline: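 CHO cells expressing human D3, serum-starved 24 h, then given compound (agonist mode) or antagonist plus 30 nM quinpirole final for 16 h at 37 °C. A 2 h [3H]thymidine pulse was used for uptake.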

D3R [2] = molecular target: T1, D3R; assay: β-Arrestin Recruitment Assay, U2OS DRD3; type: cell-based; conditions: antagonist vs EC80 8 nM PD128907, U2OS DRD3 cells; read-out: D3 IC50
Protocol: Antagonist potency of the compounds against agonist induced recruitment of β-arrestin by D3R and D2LR was measured using DiscoverRx PathHunter eXpress kits. […] After incubation at 37° C. for 90 min, the DiscoveRx detection reagent was added, the plates were incubated at room temperature for 60 min and the luminescence was measured on a Synergy 4 plate reader (BioTek). The data were plotted and the agonist EC80 values were calculated using GraphPad Prism software. For antagonist activity, the cells were plated as described above and treated with multiple concentrations (starting from 500 nM, half log dilution, 10 dose points) of the test compounds in Plating Reagent with 0.1% DMSO.

[3] = molecular target: human D3 dopamine receptor (Homo sapiens (Human), UniProt P35462); assay: Radioligand binding (125I-IABN competition), D3; conditions: 125I-IABN competition, HEK cell membranes expressing human D3
Protocol: The affinities of the target compounds were determined using radioligand binding experiments. […] Competition curves were modeled for a single site. Data from competition dose-response curves were analyzed using Tablecurve program (Jandel). IC50 values were converted to equilibrium dissociation constants (Ki values) using the Cheng and Prusoff correction.

human D2L receptors = human D2L receptors (Homo sapiens (Human), UniProt P14416); assay: [35S]GTPγS Binding Assay, CHO D2 membranes; type: biochemical; conditions: antagonist vs dopamine; Ke = functional Ki; read-out: CHO-hD2 Ke
Protocol: Chinese hamster ovary (CHO) cells expressing human D2L and D3 receptors served as the source for membrane fractions which were washed and resuspended with assay buffer containing Mg^2+, Na^+, EGTA, and bovine serum albumin. The GTPγS binding assays were performed in a final volume of 0.5 mL for CHO D2 and 1 mL for CHO D3 containing test drug or dopamine (1 mM for D2 cells, and 100 μM for D3 cells) as indicator of binding plateau, [^35S]GTPγS (0.11 nM for CHO D2 and 0.07 nM for CHO D3, 1,250 Ci/mmole, Perkin Elmer, Boston, Mass. 02118); and cell membrane suspension (in assay buffer and GDP for final concentration of 3 μM for CHO D2 and 6 μM for CHO D3). […] The plateau binding (maximal binding stimulation) with test compound was expressed as percent of maximal binding observed with the full agonist dopamine (% Emax). Antagonist activity was assessed by testing a fixed concentration of the test compound and varying concentration of the agonist, dopamine (0.001-100 μM for CHO D2 and 0.1 nM-10 uM for CHO D3). Ke is the functional Ki (equilibrium dissociation constant) of an antagonist and is calculated according to the equation: [Test Compound]/(EC50-2/EC50-1−1), where EC50-2 is the EC50 value in the presence of the test compound and EC50-1 is the value in the absence of the test compound.

T1 sequence (P35462 whole entry): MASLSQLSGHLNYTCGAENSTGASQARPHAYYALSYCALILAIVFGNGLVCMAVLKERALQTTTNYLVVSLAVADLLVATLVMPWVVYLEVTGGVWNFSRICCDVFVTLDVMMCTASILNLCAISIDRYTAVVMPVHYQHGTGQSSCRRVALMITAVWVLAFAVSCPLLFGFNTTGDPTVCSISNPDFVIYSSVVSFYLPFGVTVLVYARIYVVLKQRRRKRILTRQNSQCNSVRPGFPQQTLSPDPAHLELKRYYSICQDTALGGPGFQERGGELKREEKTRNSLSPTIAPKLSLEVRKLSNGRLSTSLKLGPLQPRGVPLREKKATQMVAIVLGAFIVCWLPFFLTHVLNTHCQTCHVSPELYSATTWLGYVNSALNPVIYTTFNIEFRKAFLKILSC
human D2L receptors, sequence (P14416 whole entry): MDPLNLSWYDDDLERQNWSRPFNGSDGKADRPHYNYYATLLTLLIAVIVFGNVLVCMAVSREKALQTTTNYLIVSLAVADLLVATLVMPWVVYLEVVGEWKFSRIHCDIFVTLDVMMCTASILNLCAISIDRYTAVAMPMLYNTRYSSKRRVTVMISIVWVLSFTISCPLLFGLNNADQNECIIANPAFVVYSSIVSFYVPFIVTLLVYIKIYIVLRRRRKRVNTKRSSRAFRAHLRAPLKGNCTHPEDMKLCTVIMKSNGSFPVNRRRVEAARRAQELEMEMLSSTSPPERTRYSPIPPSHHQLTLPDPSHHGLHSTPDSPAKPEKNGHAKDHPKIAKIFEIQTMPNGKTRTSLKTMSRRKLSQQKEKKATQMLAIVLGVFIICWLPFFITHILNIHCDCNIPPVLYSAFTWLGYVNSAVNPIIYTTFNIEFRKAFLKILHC
human D3 dopamine receptor, sequence (P35462 whole entry): as the sequence (P35462 whole entry) above

Emax at 10 µM (D3R [1]; at 10 μM, % maximum stimulation vs quinpirole (100%), read-out: D3 Agonist Emax): 0% | IC50 (D3R [1]; inhibition of quinpirole (30 nM final) stimulation of mitogenesis, read-out: D3 Antagonist IC50): 157 ± 34 nM | IC50 (D3R [2]): 0.56 ± 0.12 nM | Ki [3]: 4.2 ± 0.6 nM | Ki (human D2L receptors): 111 ± 25 nM
SMILES: CC(C)(C)c1nc(N2CCN(CCCCNC(=O)c3cn4ccccc4n3)CC2)cc(C(F)(F)F)n1 [Compound 113, N-(4-(4-(2-(tert-Butyl)-6-(trifluoromethyl)pyrimidin-4-yl)piperazin-1-yl)butyl)imidazo[1,2-a]pyridine-2-carboxamide]
percentage of baseline BPs for food self-administration under PR schedule (Long Evans rats): did not affect food self-administration
